Test system: 156681-154-R-J1-PDC tumor spheroids, viability % test/control
Experiment: Anticancer human tumor 156681-154-R-J1-PDC patient-derived melanoma cell line growth inhibition [TAK]
Conditions: spheroids with HUVEC and MSC; for IC50: curve of first compound; for viability, T/C: stronger effect = lower value
Procedure, shortened: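 Drug combinations, each paired with TAK-243 or ipatasertib, were tested on multi-cell spheroids of 60% malignant cells, 25% HUVEC and 15% hMSC. Top concentrations were at or near the clinical Cmax (10 microM if undetermined), decreasing by half-log; viability is given as % test/control.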
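Further: spheroids exposed to compounds for 7 days before the endpoint.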

CC(=O)Nc1cccc(-n2c(=O)n(C3CC3)c(=O)c3c(Nc4ccc(I)cc4F)n(C)c(=O)c(C)c32)c1 + CC(C)NCC(C(=O)N1CCN(c2ncnc3c2C(C)CC3O)CC1)c1ccc(Cl)cc1
IC50 (second compound 0.3 µM): 3.28 nM | IC50 (second compound 0.949 µM): 3.04 nM | IC50 (second compound 3 µM): 1.39 nM | IC50 (second compound 9.49 µM): < 0.0949 nM | IC50 (second compound 30 µM): < 0.0949 nM | viability, T/C (second compound 0.3 µM, first compound 94.9 pM): 92% | viability, T/C (second compound 0.3 µM, first compound 0.0003 µM): 105% | viability, T/C (second compound 0.3 µM, first compound 0.000949 µM): 95.2% | viability, T/C (second compound 0.3 µM, first compound 0.003 µM): 53.3% | viability, T/C (second compound 0.3 µM, first compound 0.00949 µM): 11% | viability, T/C (second compound 0.3 µM, first compound 0.03 µM): 7.15% | viability, T/C (second compound 0.949 µM, first compound 94.9 pM): 88.9% | viability, T/C (second compound 0.949 µM, first compound 0.0003 µM): 89.2% | viability, T/C (second compound 0.949 µM, first compound 0.000949 µM): 84.2% | viability, T/C (second compound 0.949 µM, first compound 0.003 µM): 50.8% | viability, T/C (second compound 0.949 µM, first compound 0.00949 µM): 8.92% | viability, T/C (second compound 0.949 µM, first compound 0.03 µM): 6.03% | viability, T/C (second compound 3 µM, first compound 94.9 pM): 72.3% | viability, T/C (second compound 3 µM, first compound 0.0003 µM): 69.3% | viability, T/C (second compound 3 µM, first compound 0.000949 µM): 63.6% | viability, T/C (second compound 3 µM, first compound 0.003 µM): 22.9% | viability, T/C (second compound 3 µM, first compound 0.00949 µM): 7.24% | viability, T/C (second compound 3 µM, first compound 0.03 µM): 2.71% | viability, T/C (second compound 9.49 µM, first compound 94.9 pM): 43.4% | viability, T/C (second compound 9.49 µM, first compound 0.0003 µM): 43.6% | viability, T/C (second compound 9.49 µM, first compound 0.000949 µM): 31.1% | viability, T/C (second compound 9.49 µM, first compound 0.003 µM): 13% | viability, T/C (second compound 9.49 µM, first compound 0.00949 µM): 3.14% | viability, T/C (second compound 9.49 µM, first compound 0.03 µM): 0.73% | viability, T/C (second compound 30 µM, first compound 94.9 pM): 17.9% | viability, T/C (second compound 30 µM, first compound 0.0003 µM): 18.9% | viability, T/C (second compound 30 µM, first compound 0.000949 µM): 11.8% | viability, T/C (second compound 30 µM, first compound 0.003 µM): 4.9% | viability, T/C (second compound 30 µM, first compound 0.00949 µM): 1.63% | viability, T/C (second compound 30 µM, first compound 0.03 µM): 0.28%

COC1CC2CCC(C)C(O)(O2)C(=O)C(=O)N2CCCCC2C(=O)OC(C(C)CC2CCC(OCCO)C(OC)C2)CC(=O)C(C)C=C(C)C(O)C(OC)C(=O)C(C)CC(C)C=CC=CC=C1C (stereo not given) + CC(C)NCC(C(=O)N1CCN(c2ncnc3c2C(C)CC3O)CC1)c1ccc(Cl)cc1
IC50 (second compound 0.3 µM): 29 nM | IC50 (second compound 0.949 µM): 2.9 nM | IC50 (second compound 3 µM): 0.525 nM | IC50 (second compound 9.49 µM): < 0.316 nM | IC50 (second compound 30 µM): < 0.316 nM | viability, T/C (second compound 0.3 µM, first compound 0.000316 µM): 80% | viability, T/C (second compound 0.3 µM, first compound 0.001 µM): 79.9% | viability, T/C (second compound 0.3 µM, first compound 0.00316 µM): 65.6% | viability, T/C (second compound 0.3 µM, first compound 0.01 µM): 55.7% | viability, T/C (second compound 0.3 µM, first compound 0.0316 µM): 51.8% | viability, T/C (second compound 0.3 µM, first compound 0.1 µM): 45.9% | viability, T/C (second compound 0.949 µM, first compound 0.000316 µM): 80.8% | viability, T/C (second compound 0.949 µM, first compound 0.001 µM): 65.2% | viability, T/C (second compound 0.949 µM, first compound 0.00316 µM): 48.4% | viability, T/C (second compound 0.949 µM, first compound 0.01 µM): 45.1% | viability, T/C (second compound 0.949 µM, first compound 0.0316 µM): 46.5% | viability, T/C (second compound 0.949 µM, first compound 0.1 µM): 40.7% | viability, T/C (second compound 3 µM, first compound 0.000316 µM): 51.8% | viability, T/C (second compound 3 µM, first compound 0.001 µM): 49.1% | viability, T/C (second compound 3 µM, first compound 0.00316 µM): 37.5% | viability, T/C (second compound 3 µM, first compound 0.01 µM): 32.5% | viability, T/C (second compound 3 µM, first compound 0.0316 µM): 28.6% | viability, T/C (second compound 3 µM, first compound 0.1 µM): 29.4% | viability, T/C (second compound 9.49 µM, first compound 0.000316 µM): 31.6% | viability, T/C (second compound 9.49 µM, first compound 0.001 µM): 28% | viability, T/C (second compound 9.49 µM, first compound 0.00316 µM): 21.2% | viability, T/C (second compound 9.49 µM, first compound 0.01 µM): 18.8% | viability, T/C (second compound 9.49 µM, first compound 0.0316 µM): 19.5% | viability, T/C (second compound 9.49 µM, first compound 0.1 µM): 17.4% | viability, T/C (second compound 30 µM, first compound 0.000316 µM): 15.9% | viability, T/C (second compound 30 µM, first compound 0.001 µM): 13.5% | viability, T/C (second compound 30 µM, first compound 0.00316 µM): 12.1% | viability, T/C (second compound 30 µM, first compound 0.01 µM): 8.24% | viability, T/C (second compound 30 µM, first compound 0.0316 µM): 9.33% | viability, T/C (second compound 30 µM, first compound 0.1 µM): 8.33%
